Reference: ChEMBL document CHEMBL1147992, “Glaziovianin A, a new isoflavone, from the leaves of Ateleia glazioviana and its cytotoxic activity against human cancer cells” (Bioorg Med Chem Lett, 2007)
Calls of active or inactive are those of the source. The calls are words filed in the database; no cut-off is given here.

Experiments:
HL-60 = assay: Cytotoxicity against human HL60 cells by MTT assay after 72 hrs; assay type: functional, cell-based; settings: HL-60, 72 h
[1] = Cytotoxicity against human […] cells by MTT assay after 72 hrs; assay type: functional
SK-OV-3 = assay: Cytotoxicity against human SK-OV3 cells by MTT assay after 72 hrs; assay type: functional; settings: SK-OV-3, 72 h
DMS-273 = assay: Cytotoxicity against human DMS273 cells by MTT assay after 72 hrs; assay type: functional; settings: DMS-273, 72 h
[2] = Cytotoxicity against human HBC4 cells by MTT assay after 72 hrs; assay type: functional; settings: HBC4, 72 h
SNB-75 = assay: Cytotoxicity against human SNB75 cells by MTT assay after 72 hrs; assay type: functional; settings: SNB-75, 72 h
[3] = Cytotoxicity against human MKN1 cells by MTT assay after 72 hrs; assay type: functional; settings: MKN-1, 72 h
MKN-28 = assay: Cytotoxicity against human MKN28 cells by MTT assay after 72 hrs; assay type: functional; settings: MKN-28, 72 h
NCI-H460 = assay: Cytotoxicity against human NCIH460 cells by MTT assay after 72 hrs; assay type: functional; settings: NCI-H460, 72 h
[4] = Cytotoxicity against human RXF631L cells by MTT assay after 72 hrs; assay type: functional; settings: RXF 631, 72 h
A549 = assay: Cytotoxicity against human A549 cells by MTT assay after 72 hrs; assay type: functional; settings: A549, 72 h
OVCAR-8 = assay: Cytotoxicity against human OVCAR8 cells by MTT assay after 72 hrs; assay type: functional; settings: OVCAR-8, 72 h
LOX IMVI = assay: Cytotoxicity against human LOX-IMVI cells by MTT assay after 72 hrs; assay type: functional
[5] = Cytotoxicity against human BSY1 cells by MTT assay after 72 hrs; assay type: functional; settings: BSY-1, 72 h
MKN-7 = assay: Cytotoxicity against human MKN7 cells by MTT assay after 72 hrs; assay type: functional; settings: MKN-7, 72 h
SNB-78 = assay: Cytotoxicity against human SNB78 cells by MTT assay after 72 hrs; assay type: functional; settings: SNB-78, 72 h
HCT-15 = assay: Cytotoxicity against human HCT15 cells by MTT assay after 72 hrs; assay type: functional; settings: HCT-15, 72 h
SF-539 = assay: Cytotoxicity against human SF539 cells by MTT assay after 72 hrs; assay type: functional; settings: SF-539, 72 h
HCT-116 = assay: Cytotoxicity against human HCT116 cells by MTT assay after 72 hrs; assay type: functional; settings: HCT-116, 72 h
HCC 2998 = assay: Cytotoxicity against human HCC2998 cells by MTT assay after 72 hrs; assay type: functional; settings: HCC 2998, 72 h
DMS-114 = assay: Cytotoxicity against human DMS114 cells by MTT assay after 72 hrs; assay type: functional; settings: DMS-114, 72 h
[6] = Cytotoxicity against human HBC5 cells by MTT assay after 72 hrs; assay type: functional; settings: HBC5, 72 h
ACHN = assay: Cytotoxicity against human ACHN cells by MTT assay after 72 hrs; assay type: functional
KM12 = assay: Cytotoxicity against human KM12 cells by MTT assay after 72 hrs; assay type: functional; settings: KM12, 72 h
PC-3 = assay: Cytotoxicity against human PC3 cells by MTT assay after 72 hrs; assay type: functional; settings: PC-3, 72 h
OVCAR-5 = assay: Cytotoxicity against human OVCAR5 cells by MTT assay after 72 hrs; assay type: functional; settings: OVCAR-5, 72 h
[7] = Cell cycle arrest in rat 3Y1 cells by accumulation at M phase at 3 uM after 18 hrs; assay type: functional, cell-based
MKN-45 = assay: Cytotoxicity against human MKN45 cells by MTT assay after 72 hrs; assay type: functional; settings: MKN-45, 72 h
SF-295 = assay: Cytotoxicity against human SF295 cells by MTT assay after 72 hrs; assay type: functional; settings: SF-295, 72 h
St-4 = assay: Cytotoxicity against human St4 cells by MTT assay after 72 hrs; assay type: functional; settings: St-4, 72 h
HT-29 = assay: Cytotoxicity against human HT29 cells by MTT assay after 72 hrs; assay type: functional; settings: HT-29, 72 h
U-251 = assay: Cytotoxicity against human U251 cells by MTT assay after 72 hrs; assay type: functional; settings: U-251, 72 h
MKN-74 = assay: Cytotoxicity against human MKN74 cells by MTT assay after 72 hrs; assay type: functional; settings: MKN-74, 72 h
SF-268 = assay: Cytotoxicity against human SF268 cells by MTT assay after 72 hrs; assay type: functional; settings: SF-268, 72 h
MDA-MB-231 = assay: Cytotoxicity against human MDA-MB-231 cells by MTT assay after 72 hrs; assay type: functional; settings: MDA-MB-231, 72 h
3Y1 = assay: Disruption of microtubules in rat 3Y1 cells at 1 uM after 18 hrs; assay type: functional, cell-based
DU-145 = assay: Cytotoxicity against human DU145 cells by MTT assay after 72 hrs; assay type: functional; settings: DU-145, 72 h
OVCAR-3 = assay: Cytotoxicity against human OVCAR-3 cells by MTT assay after 72 hrs; assay type: functional; settings: OVCAR-3, 72 h
OVCAR-4 = assay: Cytotoxicity against human OVCAR4 cells by MTT assay after 72 hrs; assay type: functional; settings: OVCAR-4, 72 h
NCI-H522 = assay: Cytotoxicity against human NCIH522 cells by MTT assay after 72 hrs; assay type: functional; settings: NCI-H522, 72 h
MCF7 = assay: Cytotoxicity against human MCF7 cells by MTT assay after 72 hrs; assay type: functional; settings: MCF7, 72 h
NCI-H23 = assay: Cytotoxicity against human NCIH23 cells by MTT assay after 72 hrs; assay type: functional; settings: NCI-H23, 72 h

Question: With COc1cc2occ(-c3cc4c(cc3OC)OCO4)c(=O)c2cc1OC as the compound, how does the IC50 (HL-60) read?
Answer: The IC50 was 16000 nM.

Question: Which IC50 (HL-60) does the source give for COc1ccc(-c2coc3cc(OC)c(OC)cc3c2=O)cc1OC here?
Answer: The IC50 was 23000 nM.

Question: With COc1cc(OC)c(-c2coc3cc(OC)c(OC)cc3c2=O)cc1OC as the compound, how does the IC50 (HL-60) read?
Answer: The IC50 was 8500 nM.

Question: Which GI50 [1] does the source give for COc1cc2occ(-c3cc(OC)c4c(c3OC)OCO4)c(=O)c2cc1OC [GLAZIOVIANIN A] here?
Answer: Its GI50 is 580 nM.

Question: And the GI50 (SK-OV-3)?
Answer: The GI50 was 280 nM.

Question: And the GI50 (DMS-273)?
Answer: Its GI50 is 130 nM.

Question: And the GI50 [2]?
Answer: The GI50 was 1950 nM.

Question: And the GI50 (SNB-75)?
Answer: The GI50 was 630 nM.

Question: What about the GI50 [3] of the same compound?
Answer: Its GI50 is 690 nM.

Question: And the GI50 (MKN-28)?
Answer: Its GI50 is 450 nM.

Question: And the GI50 (NCI-H460)?
Answer: Its GI50 is 410 nM.

Question: What about the GI50 [4] of the same compound?
Answer: Its GI50 is 510 nM.

Question: And the GI50 (A549)?
Answer: The GI50 was 830 nM.

Question: And the GI50 (OVCAR-8)?
Answer: Its GI50 is 1510 nM.

Question: What about the GI50 (LOX IMVI) of the same compound?
Answer: The GI50 was 870 nM.

Question: And the GI50 [5]?
Answer: The GI50 was 50 nM.

Question: What about the GI50 (MKN-7) of the same compound?
Answer: The GI50 was 1510 nM.

Question: What about the IC50 (HL-60) of the same compound?
Answer: Its IC50 is 290 nM.

Question: And the GI50 (SNB-78)?
Answer: Its GI50 is 10700 nM.

Question: And the GI50 (HCT-15)?
Answer: The GI50 was 290 nM.

Question: What about the GI50 (SF-539) of the same compound?
Answer: Its GI50 is 320 nM.

Question: What about the GI50 (HCT-116) of the same compound?
Answer: Its GI50 is 560 nM.

Question: And the GI50 (HCC 2998)?
Answer: The GI50 was 3020 nM.

Question: And the GI50 (DMS-114)?
Answer: Its GI50 is 200 nM.

Question: What about the GI50 [6] of the same compound?
Answer: Its GI50 is 470 nM.

Question: What about the GI50 (ACHN) of the same compound?
Answer: Its GI50 is 620 nM.

Question: And the GI50 (KM12)?
Answer: The GI50 was 320 nM.

Question: And the GI50 (PC-3)?
Answer: The GI50 was 100 nM.

Question: What about the GI50 (OVCAR-5) of the same compound?
Answer: Its GI50 is 2190 nM.

Question: What about the Activity [7] of the same compound?
Answer: The Activity was “Active”.

Question: And the GI50 (MKN-45)?
Answer: Its GI50 is 680 nM.

Question: And the GI50 (SF-295)?
Answer: Its GI50 is 340 nM.

Question: And the GI50 (St-4)?
Answer: Its GI50 is 15100 nM.

Question: What about the GI50 (HT-29) of the same compound?
Answer: The GI50 was 460 nM.

Question: What about the GI50 (U-251) of the same compound?
Answer: Its GI50 is 790 nM.

Question: And the GI50 (MKN-74)?
Answer: Its GI50 is 390 nM.

Question: And the GI50 (SF-268)?
Answer: The GI50 was 830 nM.

Question: And the GI50 (MDA-MB-231)?
Answer: The GI50 was 1100 nM.

Question: What about the Activity (3Y1) of the same compound?
Answer: Its Activity is “Active”.

Question: And the GI50 (DU-145)?
Answer: The GI50 was 590 nM.

Question: What about the GI50 (OVCAR-3) of the same compound?
Answer: Its GI50 is 130 nM.

Question: What about the GI50 (OVCAR-4) of the same compound?
Answer: Its GI50 is 10500 nM.

Question: And the GI50 (NCI-H522)?
Answer: The GI50 was 230 nM.

Question: And the GI50 (MCF7)?
Answer: The GI50 was 390 nM.

Question: And the GI50 (NCI-H23)?
Answer: Its GI50 is 5130 nM.
